These results are taken from patent publication US20210030039A1, “Prebiotic Compositions And Methods Of Production Thereof” (Optibiotix Limited, priority 2018, published 2021).

The conditions of experiment [1]: reported; cited from earlier work.
A short description of experiment [2]: Sensory profiling (QDA) by trained sensory panel, unstructured line scales 0-100. The experiment is classed as in vivo, human. The source says:
A trained sensory panel at the Reading Sensory Science Centre (UK) were employed for sensory profiling of the samples. There were 10 panellists with between 1 and 9 years' experience. A QDA (quantitative descriptive analysis) profiling approach was taken. The panel used the same vocabulary that they had developed as a consensus for the tasting sessions including the term liquorice flavour which is characteristic note of steviol glycosides. The panel were retrained at the start of the sample set over 3 separate tasting sessions. This re-training focused on ensuring that they could reliably score sweetness relative to the new concentration of sucrose standard positions. Rating was carried out independently using unstructured lines scales (scaled 0-100), in duplicate, in isolated sensory booths. However, in order to improve discrimination for sweetness, the four sucrose samples were used as standards and the mean values for each of these samples, as agreed by the panel, are shown in Table 1 below. At the start of each scoring session the panel tasted the four reference samples in order of increasing strength to re-familiarise themselves with the positioning of these levels of sweetness on the line scale. The reference samples (10 mL) were served in transparent polystyrene cups (30 mL). They then palate cleansed with warm filtered tap water and low salt crackers (Carr's water crackers) before commencing the sample tasting session, and again between each sample scoring session. Samples, labelled with random 3 digit codes, were presented in a balanced presentation order in a monadic sequential manner with a maximum of 6 samples per day. Samples were served at 23-24° C. (room temperature) with air conditioning of the room set to 23° C.

SMILES strings stand for the structures.

As to `C[C@H](CC[C@@H](O[C@@H]1O[C@H](CO[C@@H]2O[C@H](CO)[C@@H](O)[C@H](O)[C@H]2O)[C@@H](O)[C@H](O)[C@H]1O[C@@H]1O[C@H](CO)[C@@H](O)[C@H](O)[C@H]1O)C(C)(C)O)[C@H]1CC[C@@]2(C)[C@@H]3CC=C4[C@@H](CC[C@H](O[C@@H]5O[C@H](CO[C@@H]6O[C@H](CO)[C@@H](O)[C@H](O)[C@H]6O)[C@@H](O)[C@H](O)[C@H]5O)C4(C)C)[C@]3(C)[C@H](O)C[C@]12C` [Mogroside V], the “sweet potency relative to sucrose” value in experiment [1] is around 400 ×.
`OC[C@H]1O[C@@](CO)(O[C@H]2O[C@H](CO)[C@@H](O)[C@H](O)[C@H]2O)[C@@H](O)[C@@H]1O` [Sucrose]: the “Mean Rating (0-100), sweetness standard” value in experiment [2] (Standard 1, sucrose 2.0 % w/v) was 10; in experiment [2] (Standard 2, sucrose 4.0 % w/v) it was 35; in experiment [2] (Standard 3, sucrose 6.0 % w/v) it was 75; in experiment [2] (Standard 4, sucrose 8.0 % w/v), 100.
